Where a chain is given by its changes, count along the chain named.
B1: CNT3ins, the truncated isoform (Δ1–69) of human concentrative nucleoside transporter 3 (hCNT3) (domain or fragment, UniProt Q9HAS3 70-691, looked up)
chain: MEDDDEEMQQKGCLERRYDTVCGFCRKHKTTLRHIIWGILLAGYLVMVISACVLNFHRALPLFVITVAAIFFVVWDHLMAKYEHRIDEMLSPGRRLLNSHWFWLKWVIWSSLVLAVIFWLAFDTAKLGQQQLVSFGGLIMYIVLLFLFSKYPTRVYWRPVLWGIGLQFLLGLLILRTDPGFIAFDWLGRQVQTFLEYTDAGASFVFGEKYKDHFFAFKVLPIVVFFSTVMSMLYYLGLMQWIIRKVGWIMLVTTGSSPIESVVASGNIFVGQTESPLLVRPYLPYITKSELHAIMTAGFSTIAGSVLGAYISFGVPSSHLLTASVMSAPASLAAAKLFWPETEKPKITLKNAMKMESGDSGNLLEAATQGASSSISLVANIAVNLIAFLALLSFMNSALSWFGNMFDYPQLSFELICSYIFMPFSFMMGVEWQDSFMVARLIGYKTFFNEFVAYEHLSKWIHLRKEGGPKFVNGVQQYISIRSEIIATYALCGFANIGSLGIVIGGLTSMAPSRKRDIASGAVRALIAGTVACFMTACIAGILSSTPVDINCHHVLENAFNSTFPGNTTKVIACCQSLLSSTVAKGPGEVIPGGNHSLYSLKGCCTLLNPSTFNCNGISNTF
notes: human concentrative nucleoside transporter 3 (hCNT3, SLC28A3), truncated isoform lacking the 69 N-terminal residues (Δ1–69); codon-optimised cDNA; density resolved for residues 100–614; also called CNT3ins (Δ1–69); SLC28A3; source: Sf9 insect cells (baculovirus, pFastBac1), purified (StrepTactin Sepharose, Superose 6 SEC) in digitonin or DDM

What was measured:
[1] = target: T1, hCNT3 (full-length wild-type) (Homo sapiens, UniProt Q9HAS3); experiment: isothermal titration calorimetry, one-site model; settings: read-out: binding affinity
T1 construct: gene SLC28A3; full-length, C-terminal Strep-tag, codon-optimized cDNA, baculovirus/Sf9 expression, purified in DDM, homotrimer
T1 sequence (Q9HAS3 1-691): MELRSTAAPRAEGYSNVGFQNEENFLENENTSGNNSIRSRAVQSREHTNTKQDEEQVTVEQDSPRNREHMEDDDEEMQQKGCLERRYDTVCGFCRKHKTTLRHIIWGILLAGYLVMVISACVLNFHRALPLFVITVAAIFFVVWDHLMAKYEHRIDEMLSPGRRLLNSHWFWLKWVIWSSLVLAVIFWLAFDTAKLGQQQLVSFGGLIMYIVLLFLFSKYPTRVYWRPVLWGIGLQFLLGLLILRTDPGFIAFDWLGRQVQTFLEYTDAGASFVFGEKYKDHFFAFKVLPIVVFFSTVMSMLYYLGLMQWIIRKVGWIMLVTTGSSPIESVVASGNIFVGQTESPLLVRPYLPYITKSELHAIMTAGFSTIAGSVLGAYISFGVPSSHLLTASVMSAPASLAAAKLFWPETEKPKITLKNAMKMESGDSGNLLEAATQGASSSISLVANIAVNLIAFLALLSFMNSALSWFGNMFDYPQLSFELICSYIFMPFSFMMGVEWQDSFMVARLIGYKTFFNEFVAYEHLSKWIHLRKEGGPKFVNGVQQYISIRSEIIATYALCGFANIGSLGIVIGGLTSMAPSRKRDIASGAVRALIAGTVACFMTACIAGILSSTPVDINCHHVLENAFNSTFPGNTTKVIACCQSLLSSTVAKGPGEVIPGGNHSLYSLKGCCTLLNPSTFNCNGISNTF

CNT3ins (Δ1–69) = target: T2, CNT3ins (Δ1–69) (Homo sapiens, UniProt Q9HAS3); experiment: isothermal titration calorimetry, one-site model; settings: read-out: binding affinity
T2 construct: gene SLC28A3; lacks the 69 N-terminal residues, C-terminal Strep-tag, baculovirus/Sf9 expression, purified in DDM for ITC, homotrimer
T2 sequence (Q9HAS3 70-691): B1 chain

[2] = target: T3, hCNT3 (full-length wild-type) (Homo sapiens, UniProt Q9HAS3, N565A); experiment: isothermal titration calorimetry, one-site model; assay type: binding
T3 construct: gene SLC28A3; full-length, C-terminal Strep-tag, codon-optimized cDNA, baculovirus/Sf9 expression, purified in DDM, homotrimer
T3 sequence (Q9HAS3 1-691 N565A): T1 sequence (Q9HAS3 1-691) with N565A

[3] = target: T4, hCNT3 (full-length wild-type) (Homo sapiens, UniProt Q9HAS3, E343A); experiment: isothermal titration calorimetry, one-site model; settings: read-out: binding affinity
T4 construct: gene SLC28A3; full-length, C-terminal Strep-tag, codon-optimized cDNA, baculovirus/Sf9 expression, purified in DDM, homotrimer
T4 sequence (Q9HAS3 1-691 E343A): T1 sequence (Q9HAS3 1-691) with E343A

[4] = target: the molecule itself; experiment: cryo-EM structure; purified CNT3ins (Δ1–69) at 6 mg/ml in 25 mM Tris pH 8.0, 150 mM NaCl, 0.1% digitonin; nucleoside-free; reconstruction with C3 symmetry

| Molecule | Kd [1] [µM] | Kd (CNT3ins (Δ1–69)) [µM] | Kd [2] [µM] | Kd [3] [µM] | stoichiometry N [4] |
| --- | --- | --- | --- | --- | --- |
| Nc1ccn([C@@H]2O[C@H](CO)[C@@H](O)[C@H]2O)c(=O)n1 [cytidine] | ~260 | – | – | – | – |
| Cc1cn([C@H]2C[C@H](O)[C@@H](CO)O2)c(=O)[nH]c1=O [thymidine] | ~603 | – | – | – | – |
| O=c1ccn([C@@H]2O[C@H](CO)[C@@H](O)[C@H]2O)c(=O)[nH]1 [uridine] | ~325 | ~368 | ~280 | ~1190 | – |
| B1 | – | – | – | – | 3 |
